This note sets out measurements from patent publication US20260167622A1, “PAN-KRAS DEGRADING AGENT, AND PREPARATION METHOD THEREFOR AND USE THEREOF” (LEADINGTAC PHARMACEUTICAL (SHAOXING) CO., LTD., priority 2022, published 2026).

The structures appear in SMILES notation. pIC50: −log10 of the molar value.

Holding throughout (assay type): cell-based
In assay [1] the test system is KRAS G12C mutant human non-small cell lung cancer cell NCI-H358. The assay can be described thus: 3D cell proliferation inhibition assay, NCI-H358. To be noted: NCI-H358, 168 h, 3D culture, 7 days, CTG. Put shortly:
(§1)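 Cells seeded in low-adsorption plates at 5×10^2 cells/well (MKN1 1×10^3) with compounds at final 10000–0.026 nM, 0.2% DMSO, 3D culture 7 days at 37 °C. Viability by CellTiter-Glo luminescence; inhibition normalised to DMSO and medium-only controls, IC50 from nonlinear log-concentration fit.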

The subject of assay [2] is KRAS WT human gastric cancer cell MKN1. Description: 3D cell proliferation inhibition assay, MKN1. Particulars: MKN-1, 168 h, 3D culture, 7 days, CTG. An outline of the steps:
as §1

Assay [3] concerns KRAS G13D mutant human colorectal cancer epithelial cell DLD-1. The assay can be described thus: 3D cell proliferation inhibition assay, DLD-1. Particulars: DLD-1, 168 h, 3D culture, 7 days, CTG. Put shortly:
as §1

The subject of assay [4] is KRAS G12V mutant human colorectal cancer cell SW620. The assay can be described thus: 3D cell proliferation inhibition assay, SW620. Particulars: SW-620, 168 h, 3D culture, 7 days, CTG. An outline of the steps:
as §1

Assay [5] concerns the target T1, KRAS G12D protein in AsPc-1 cells (Homo sapiens, UniProt P01116, G12D).
T1 construct: endogenous in cells; host or cells: AsPc-1
Description: KRAS degradation assay (Western Blot) in AsPc-1 cells. The text has this:
(§2) Test Example 5: KRAS G12C, KRAS G12D, KRAS G12V, KRAS G13D, and KRAS WT (Expanded) Degradation Assays
(§3) The degradation effect of the compounds on KRAS was investigated on KRAS G12C mutant human non-small cell lung cancer cell NCI-H358, KRAS G12D mutant human metastatic pancreatic cancer cell AsPc-1, KRAS G12D mutant human lung cancer cell A427, KRAS G12V mutant human colorectal cancer cell SW620, KRAS G12V mutant human lung cancer cell SW900, KRAS G13D mutant human colorectal cancer epithelial cell DLD-1, and KRAS WT human gastric cancer cell MKN-1. The specific procedures were as follows: 0.95 mL of cells were seeded into each well of a 24-well cell culture plate to achieve a cell density of 5×10^5 cells/well; and the cell plate was incubated in an incubator at 37° C. with 5% CO2 overnight. Then 50 μL of the compound solution after dilution was added to each of the wells with the corresponding cells, so that the final concentration of the compound was in a range of 0.03-3000 nM. The final concentration of DMSO was 0.25%. After the compounds were added, the cell plate was incubated in an incubator at 37° C. with 5% CO2 for 24 h. The culture medium in the 24-well cell culture plate was then removed, and the plate was washed twice with 1×PBS (KeyGEN). 120 μL of RIPA (strong) lysis buffer (Beyotime) (supplemented with 1 mM phenylmethylsulfonyl fluoride, a protease inhibitor mixture (Beyotime), and a protease phosphatase inhibitor mixture (Beyotime)) was added to lyse adherent SW900 cells at the bottom of the cell culture plate. After the plate was left to stand on ice for 30 min, the protein lysate in each well was transferred to a 1.5 mL centrifuge tube and centrifuged at 15000 g for 20 min at 4° C. The cell lysate supernatants after centrifugation were cryopreserved in a refrigerator at −80° C. for later use.
(§4) After the samples of the cell lysate supernatants that had been prepared were thawed from the refrigerator at −80° C., the total protein concentrations of the cell lysates were determined using a BCA protein quantification kit (Tiangen). The total protein concentrations of the samples were then adjusted to 0.5 μg/μL with PBS and 5×SDS-PAGE protein loading buffer (Beyotime), and the samples were incubated in a water bath at 100° C. for 15 min. The samples were then incubated in an ice bath for 5 min and centrifuged at 14000 g for 1 min at 4° C., and the supernatants were mixed well as loading samples for the Western Blot assay. The samples were loaded into wells of a 10% precast gel (KeyGEN) with a loading volume of 10 μL (total protein: 5 μg), a sufficient Tris-MOPS-SDS running buffer (Adamas) was added, and then electrophoresis was performed at a constant voltage of 120 V for 55 min. After the electrophoresis, the proteins on the gel were transferred to PVDF membranes at a constant current of 250 mA for 55 min. After the membrane transfer, the PVDF membranes were incubated in 1× Quick Block blocking buffer (Beyotime)at room temperature for 30 min. After the blocking, the PVDF membranes were separately incubated at 4° C. overnight with the KRAS antibody (Abcam) diluted in a ratio of 1:1000 and the β-actin antibody (Abcam) diluted in a ratio of 1:2000 in 5% BSA as the diluent, and then washed with 1×TBST buffer (2.4 g of Tris, 8.8 g of NaCl, 1.5 mL of Tween 20, with pH adjusted to 7.4, with the volume brought to 1 L) 3 times for 10 min/time. The membranes were incubated with a secondary antibody (Abcam) diluted in 5% BSA at room temperature for 2 h, and then washed with 1×TBST buffer 3 times for 10 min/time. Finally, the membranes were incubated with Clarity Western ECL Substrate (BIO-RAD) for 5 min for luminescence and color development, and a ChemiScope 6200 Touch chemiluminescence imaging system (Clinx) was used for color development and protein mapping. Gray value analysis of the protein maps was performed using the chemiluminescence analysis software (Clinx). […]
On the technique in general: A western blot detects proteins with antibodies after separation by electrophoresis.

Assay [6] concerns the target T2, KRAS G13D protein in DLD-1 cells (Homo sapiens, UniProt P01116, G13D).
T2 construct: endogenous in cells; host or cells: DLD-1
Description: KRAS degradation assay (Western Blot) in DLD-1 cells. Particulars: 24 h.
Text: as §2, §3, §4

In assay [7] the target is T3, KRAS G12V protein in SW620 cells (Homo sapiens, UniProt P01116, G12V).
T3 construct: endogenous in cells; host or cells: SW620
T3 sequence (P01116 1-188 isoform P01116-2 G12V): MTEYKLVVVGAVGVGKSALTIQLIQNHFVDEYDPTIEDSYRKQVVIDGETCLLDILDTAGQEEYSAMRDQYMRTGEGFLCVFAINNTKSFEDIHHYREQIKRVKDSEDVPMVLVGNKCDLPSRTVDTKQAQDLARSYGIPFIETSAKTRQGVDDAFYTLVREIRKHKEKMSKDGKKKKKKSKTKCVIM
The assay can be described thus: KRAS degradation assay (Western Blot) in SW620 cells. Particulars: for DC50: 24 h; for Dmax: SW-620, 24 h. Put shortly:
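After a 24 h treatment spanning 0.03–3000 nM, remaining KRAS protein is quantified by ECL immunoblot against a β-actin internal reference. Degradation is expressed relative to vehicle-treated cells and curve-fitted for DC50 and Dmax.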

In assay [8] the target is T4, KRAS G12C protein in NCI-H358 cells (Homo sapiens, UniProt P01116, G12C).
T4 construct: endogenous in cells; host or cells: NCI-H358
T4 sequence (P01116 1-188 isoform P01116-2 G12C): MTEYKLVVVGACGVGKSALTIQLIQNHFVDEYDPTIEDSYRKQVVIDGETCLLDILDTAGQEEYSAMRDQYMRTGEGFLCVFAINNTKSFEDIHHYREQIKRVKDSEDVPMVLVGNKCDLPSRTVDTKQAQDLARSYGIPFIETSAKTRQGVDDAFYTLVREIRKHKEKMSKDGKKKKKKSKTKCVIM
Description: KRAS degradation assay (Western Blot) in NCI-H358 cells. To be noted: 24 h.
Text: as §2, §3, §4

The subject of assay [9] is KRAS G12D mutant human metastatic pancreatic cancer cell AsPc-1. The assay can be described thus: 3D cell proliferation inhibition assay, AsPc-1. Particulars: ASPC1, 168 h, 3D culture, 7 days, CTG. An outline of the steps:
as §1

Assay [10] deals with T5, KRAS WT (expanded) protein in MKN1 cells (Homo sapiens, UniProt P01116).
T5 construct: endogenous in cells; host or cells: MKN1 (MKN-1)
T5 sequence (P01116 1-188 isoform P01116-2): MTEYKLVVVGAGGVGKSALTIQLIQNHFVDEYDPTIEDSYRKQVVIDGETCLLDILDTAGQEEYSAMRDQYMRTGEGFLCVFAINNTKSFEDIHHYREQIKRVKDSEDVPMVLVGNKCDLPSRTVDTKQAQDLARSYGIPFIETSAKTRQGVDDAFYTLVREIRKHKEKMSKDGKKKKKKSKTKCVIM
The assay can be described thus: KRAS degradation assay (Western Blot) in MKN1 cells. To be noted: for DC50: 24 h; for Dmax: MKN-1, 24 h.
Text: as §2, §3, §4

The pIC50 is the negative decadic logarithm of the IC50, by convention in mol/L. For orientation: DC50 means the midpoint of the concentration-degradation curve. The Dmax is the largest share of the target that was removed. A lower Dmax goes with shallow degradation.

T2 sequence (P01116 1-188 isoform P01116-2 G13D): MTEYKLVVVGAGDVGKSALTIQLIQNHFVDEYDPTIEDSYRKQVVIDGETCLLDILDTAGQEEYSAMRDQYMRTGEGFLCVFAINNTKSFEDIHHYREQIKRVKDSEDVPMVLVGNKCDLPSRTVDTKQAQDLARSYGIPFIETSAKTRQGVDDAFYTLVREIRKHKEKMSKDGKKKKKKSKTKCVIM
T1 sequence (P01116 1-188 isoform P01116-2 G12D): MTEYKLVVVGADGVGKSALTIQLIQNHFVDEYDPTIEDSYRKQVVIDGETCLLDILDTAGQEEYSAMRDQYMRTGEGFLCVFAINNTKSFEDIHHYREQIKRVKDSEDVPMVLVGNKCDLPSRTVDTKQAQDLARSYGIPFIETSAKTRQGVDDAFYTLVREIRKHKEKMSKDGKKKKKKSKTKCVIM

For `C#Cc1c(F)ccc2cc(O)cc(-c3ncc4c(N(C)[C@H]5C[C@@H]5F)nc(OC[C@H](C)CN5CCN(CC6CCC7(CC6)CCN(C(=O)c6ccc(OC)c(N8CCC(=O)NC8=O)c6)CC7)CC5)nc4c3F)c12` [Example 50, 1-(5-(9-((4-((R)-3-((7-(8-ethynyl-7-fluoro-3-hydroxynaphthalen-1-yl)-8-fluoro-4-(((1S,2S)-2-fluorocyclopropyl)(methyl)amino)pyrido[4,3-d]pyrimidin-2-yl)oxy)-2-methylpropyl)piperazin-1-yl)methyl)-3-azaspiro[5.5]undecane-3-carbonyl)-2-methoxyphenyl)dihydropyrimidine-2,4(1H,3H)-dione], the pIC50 was 7.33 in assay [1]; 7.63 in assay [2]; 7.04 in [3]; 8.43 in assay [4]; 6.80 in assay [9]. In addition, the half-maximal degradation concentration (DC50) in assay [5] (24 h) came to 167 nM; in assay [6], 3.98 nM; in [7], 3.22 nM; in assay [8], 21.6 nM. Moreover, the Dmax in assay [5] (ASPC1, 24 h) was found to be 77.1%; in assay [6], 98%; in assay [7] it was 99.4%; in [8], 96.3%.

Regarding `C#Cc1c(F)ccc2cc(O)cc(-c3ncc4c(N5CCC[C@@](C)(O)C5)nc(OCC5(CN6CCN(CC7CCC8(CC7)CCN(C(=O)c7ccc(CC)c(N9CCC(=O)NC9=O)c7)CC8)CC6)CC5)nc4c3F)c12` [Example 92, (R)-1-(2-ethyl-5-(9-((4-((1-(((7-(8-ethynyl-7-fluoro-3-hydroxynaphthalen-1-yl)-8-fluoro-4-(3-hydroxy-3-methylpiperidin-1-yl)pyrido[4,3-d]pyrimidin-2-yl)oxy)methyl)cyclopropyl)methyl)piperazin-1-yl)methyl)-3-azaspiro[5.5]undecane-3-carbonyl)phenyl)dihydropyrimidine-2,4(1H,3H)-dione], the pIC50 is 7.71 in [1]; 6.35 in [2]; 8.65 in assay [3]; 8.88 in assay [4]; 8.17 in assay [9]. Also, the 50% degradation concentration (DC50) was 0.42 nM in assay [10] and 1.34 nM in [7]. For the same compound, the Dmax in [10] turned out to be 99%; in assay [7], 100%.

For the compound `[2H]C([2H])([2H])c1ccc(C(=O)N2CCC3(CCC(CN4CCN(CC5(COc6nc(N7CCC[C@@](C)(O)C7)c7cnc(-c8cc(O)cc9ccc(F)c(C#C)c89)c(F)c7n6)CC5)CC4)CC3)CC2)cc1N1CCC(=O)NC1=O` [Example 111, (R)-1-(5-(9-((4-((1-(((7-(8-ethynyl-7-fluoro-3-hydroxynaphthalen-1-yl)-8-fluoro-4-(3-hydroxy-3-methylpiperidin-1-yl)pyrido[4,3-d]pyrimidin-2-yl)oxy)methyl)cyclopropyl)methyl)piperazin-1-yl)methyl)-3-azaspiro[5.5]undecane-3-carbonyl)-2-(methyl-d3)phenyl)dihydropyrimidine-2,4(1H,3H)-dione], the pIC50 in assay [1] was 8.60; in assay [2], 8.67; in assay [3] it was 8.23; in [4] it was 8.95; in assay [9], 8.33. Further, the DC50 in assay [10] came out at 0.69 nM; in [6] it was 6.78 nM; in assay [7], 1.65 nM. Also, the values for the greatest degradation seen (Dmax) in [10], in assay [6] and in assay [7] were 99.9%, 99.3% and 100%, respectively.
